According to patent US20180298405A1, “METHODS AND COMPOSITIONS TO INCREASE HUMAN SOMATIC CELL NUCLEAR TRANSFER (SCNT) EFFICIENCY BY REMOVING HISTONE H3-LYSINE TRIMETHYLATION, AND DERIVATION OF HUMAN NT-ESC” (CHILDREN'S MEDICAL CENTER CORPORATION, priority 2015, published 2018):

System: reprogramming resistant regions (RRRs) / ZGA genes
Assay: RNA-seq of late 8-cell human SCNT embryos with or without KDM4A mRNA injection (ZGA of RRRs, KDM4A-responsive genes)
Format: cell-based
Description: A sliding window (size 20 kb, step size 10 kb) was used to assess the genome-wide expression level of 4-cell and 8-cell human embryos. For each window, the expression level was quantified with normalized RPM (reads per millions of uniquely mapped reads). […] These activated regions were classed into three groups based on their expression differences in human SCNT and IVF 8-cell embryos.
The SCNT embryos used for ZGA analysis were generated using oocytes donated by a single healthy person (#64) and dermal fibroblast cells from an AMD patient (DFB-8). SCNT and IVF embryos were cultured up to late 8-cell stage, when the compaction of blastomeres is initiated, then they were treated briefly with acid Tyrode solution to remove zona pellucida. To prepare for the 8-cell SCNT embryo, oocytes from a single oocyte donor, and skin fibroblast cells from a single somatic nuclear donor were used. All the procedures are the same as described in the “Human SCNT procedure and KMD4A mRNA injection” section. Only embryos that reached the late 8-cell stage synchronically 74 hours post activation were collected and used for this experiment.
For preparation of the control IVF embryos, several donated early 8-cell stage IVF embryos were thawed and cultured for 5-7 hours to allow them to reach late 8-cell stage before being processed. After removal of the zona pellucida, the denuded embryos were washed 3 times in PBS, loaded into RNAse and DNAse free PCR tubes, spin downed, and snap frozen in liquid nitrogen. Then, they were kept at −80° C. until use. As controls, dermal fibroblast cells of somatic nuclear donors were also prepared. Those fibroblast cells were cultured in a 25 cm^2 flask in DMEM 10% FBS, and approximately 10,000 cells/donor were collected, snap frozen, and stored at −80° C. until use.
Five 8-cell embryos for each group were directly lysed and used for cDNA synthesis using SMART-Seq v4 Ultra Low Input RNA Kit (Clontech). For MEF donor, 10 ng total RNA was used for cDNA synthesis using SMART-Seq v4 Ultra Low Input RNA Kit. After amplification, the cDNA samples were fragmented using Covaris sonicator M220 to an average size of 150 bp (Covaris). Sequencing libraries were made with the fragmented DNA using NEBNext Ultra DNA Library Prep Kit for Illumina according to manufacturer's instruction (New England Biolabs) with different barcodes. For each RNA-seq analysis of hESCs, 1 μg total RNA was used for mRNA purification. Barcoded RNA-seq libraries were generated using NEBNext Ultra Directional RNA Library Prep Kit for Illumina (New England Biolabs). Single end 50 bp sequencing was performed on a HiSeq 2500 sequencer (Illumina). Sequencing reads were mapped to the human genome (hg19) with Tophat2. All programs were performed with default settings (unless otherwise specified). At least 22 million uniquely mapped reads were obtained for each sequencing library, and subsequently assembled into transcripts guided by the reference annotation (Refseq gene models) with Cufflinks v2.0.2. Expression level of each gene was quantified with normalized FPKM (fragments per kilobase of exon per million mapped fragments). Statistical analyses were performed with R (available at: “www.r-project.org/”). Independent 2 group Wilcoxon rank sum tests were used to compare distributions using the wilcox.test function in R. Pearson's r coefficient was calculated using the cor function with default parameters. The hierarchical clustering analysis of the global gene expression pattern in different samples was carried out using heatmap.2 function (gplots package) in R.

Substance: KDM4A mRNA: in vitro transcribed mRNA of full length human KDM4A/JHDM3A cDNA, an H3K9me3 demethylase (SEQ ID NO: 1)
- ZNF826P Fold Change (log2) [KDM4A SCNT/Control SCNT] (8-cell embryos): 2.67 log2
- ZNHIT6 Fold Change (log2) [KDM4A SCNT/Control SCNT] (8-cell embryos): 1.58 log2
- 12-Sep Expression level (FPKM) (KDM4A SCNT 8-cell embryos): 0.3 FPKM
- AASDH Expression level (FPKM) (KDM4A SCNT 8-cell embryos): 2.84 FPKM
- ACBD5 Expression level (FPKM) (KDM4A SCNT 8-cell embryos): 1.62 FPKM
- ALG5 Expression level (FPKM) (KDM4A SCNT 8-cell embryos): 9.71 FPKM
- ALPPL2 Expression level (FPKM) (KDM4A SCNT 8-cell embryos): 3.65 FPKM
- APOC1P1 Expression level (FPKM) (KDM4A SCNT 8-cell embryos): 0.43 FPKM
- ATP5J2-PTCD1 Expression level (FPKM) (KDM4A SCNT 8-cell embryos): 4.51 FPKM
- BEX2 Expression level (FPKM) (KDM4A SCNT 8-cell embryos): 2.68 FPKM
- BLVRB Expression level (FPKM) (KDM4A SCNT 8-cell embryos): 2.11 FPKM
- BTAF1 Expression level (FPKM) (KDM4A SCNT 8-cell embryos): 1.46 FPKM
- BTK Expression level (FPKM) (KDM4A SCNT 8-cell embryos): 1.67 FPKM
- BUD31 Expression level (FPKM) (KDM4A SCNT 8-cell embryos): 76.07 FPKM
- C1D Expression level (FPKM) (KDM4A SCNT 8-cell embryos): 97 FPKM
- C2orf74 Expression level (FPKM) (KDM4A SCNT 8-cell embryos): 0.41 FPKM
- C11orf67 Expression level (FPKM) (KDM4A SCNT 8-cell embryos): 28.21 FPKM
- C12orf60 Expression level (FPKM) (KDM4A SCNT 8-cell embryos): 46.22 FPKM
- C16orf91 Expression level (FPKM) (KDM4A SCNT 8-cell embryos): 9.96 FPKM
- C17orf89 Expression level (FPKM) (KDM4A SCNT 8-cell embryos): 0.75 FPKM
- C18orf56 Expression level (FPKM) (KDM4A SCNT 8-cell embryos): 0.33 FPKM
- C20orf7 Expression level (FPKM) (KDM4A SCNT 8-cell embryos): 2.28 FPKM
- CAB39L Expression level (FPKM) (KDM4A SCNT 8-cell embryos): 4.06 FPKM
- CCAR1 Expression level (FPKM) (KDM4A SCNT 8-cell embryos): 4.62 FPKM
- CCDC86 Expression level (FPKM) (KDM4A SCNT 8-cell embryos): 2.88 FPKM
- CCL2 Expression level (FPKM) (KDM4A SCNT 8-cell embryos): 6.1 FPKM
- CCL15 Expression level (FPKM) (KDM4A SCNT 8-cell embryos): 0.89 FPKM
- CELA3B Expression level (FPKM) (KDM4A SCNT 8-cell embryos): 0.49 FPKM
- CENPC1 Expression level (FPKM) (KDM4A SCNT 8-cell embryos): 7.41 FPKM
- CLC Expression level (FPKM) (KDM4A SCNT 8-cell embryos): 13.82 FPKM
- CLDN6 Expression level (FPKM) (KDM4A SCNT 8-cell embryos): 3.54 FPKM
- CLK4 Expression level (FPKM) (KDM4A SCNT 8-cell embryos): 19.9 FPKM
- CNKSR3 Expression level (FPKM) (KDM4A SCNT 8-cell embryos): 0.29 FPKM
- CNPY4 Expression level (FPKM) (KDM4A SCNT 8-cell embryos): 5.19 FPKM
- COX7B2 Expression level (FPKM) (KDM4A SCNT 8-cell embryos): 0.79 FPKM
- COX17 Expression level (FPKM) (KDM4A SCNT 8-cell embryos): 26.62 FPKM
- CSAG1 Expression level (FPKM) (KDM4A SCNT 8-cell embryos): 2.22 FPKM
- CSTF3 Expression level (FPKM) (KDM4A SCNT 8-cell embryos): 28.96 FPKM
- CUL2 Expression level (FPKM) (KDM4A SCNT 8-cell embryos): 14.32 FPKM
- CXorf61 Expression level (FPKM) (KDM4A SCNT 8-cell embryos): 0.85 FPKM
- DDX26B Expression level (FPKM) (KDM4A SCNT 8-cell embryos): 1.77 FPKM
- DEFB122 Expression level (FPKM) (KDM4A SCNT 8-cell embryos): 0.61 FPKM
- DLEU7 Expression level (FPKM) (KDM4A SCNT 8-cell embryos): 2.91 FPKM
- DNASE2 Expression level (FPKM) (KDM4A SCNT 8-cell embryos): 0.61 FPKM
- DRAM1 Expression level (FPKM) (KDM4A SCNT 8-cell embryos): 0.63 FPKM
- ECE2 Expression level (FPKM) (KDM4A SCNT 8-cell embryos): 1.18 FPKM
- EIF1AD Expression level (FPKM) (KDM4A SCNT 8-cell embryos): 9.43 FPKM
- ELL2 Expression level (FPKM) (KDM4A SCNT 8-cell embryos): 1.39 FPKM
- FAM9A Expression level (FPKM) (KDM4A SCNT 8-cell embryos): 1.32 FPKM
- FAM19A3 Expression level (FPKM) (KDM4A SCNT 8-cell embryos): 1.7 FPKM
- FAM83D Expression level (FPKM) (KDM4A SCNT 8-cell embryos): 2.53 FPKM
- FAM133B Expression level (FPKM) (KDM4A SCNT 8-cell embryos): 6.06 FPKM
- FAM151A Expression level (FPKM) (KDM4A SCNT 8-cell embryos): 1.01 FPKM
- FAM162A Expression level (FPKM) (KDM4A SCNT 8-cell embryos): 19.35 FPKM
- FAM200A Expression level (FPKM) (KDM4A SCNT 8-cell embryos): 1.23 FPKM
- FASTKD5 Expression level (FPKM) (KDM4A SCNT 8-cell embryos): 4.41 FPKM
- FBXL12 Expression level (FPKM) (KDM4A SCNT 8-cell embryos): 1.8 FPKM
- FMR1NB Expression level (FPKM) (KDM4A SCNT 8-cell embryos): 0.18 FPKM
- FOXN2 Expression level (FPKM) (KDM4A SCNT 8-cell embryos): 5.53 FPKM
- GALM Expression level (FPKM) (KDM4A SCNT 8-cell embryos): 3.67 FPKM
- GIP Expression level (FPKM) (KDM4A SCNT 8-cell embryos): 12.94 FPKM
- GJA1 Expression level (FPKM) (KDM4A SCNT 8-cell embryos): 1.64 FPKM
- GOLGB1 Expression level (FPKM) (KDM4A SCNT 8-cell embryos): 1.36 FPKM
- GUCA1B Expression level (FPKM) (KDM4A SCNT 8-cell embryos): 0.83 FPKM
- GUSBP1 Expression level (FPKM) (KDM4A SCNT 8-cell embryos): 7.96 FPKM
- GUSBP4 Expression level (FPKM) (KDM4A SCNT 8-cell embryos): 2.42 FPKM
- H3F3A Expression level (FPKM) (KDM4A SCNT 8-cell embryos): 14.47 FPKM
- IFI30 Expression level (FPKM) (KDM4A SCNT 8-cell embryos): 25.62 FPKM
- IL13RA2 Expression level (FPKM) (KDM4A SCNT 8-cell embryos): 0.26 FPKM
- KHDC1 Expression level (FPKM) (KDM4A SCNT 8-cell embryos): 85.25 FPKM
- KHDC1L Expression level (FPKM) (KDM4A SCNT 8-cell embryos): 668.53 FPKM
- KITLG Expression level (FPKM) (KDM4A SCNT 8-cell embryos): 0.93 FPKM
- KLF17 Expression level (FPKM) (KDM4A SCNT 8-cell embryos): 8.4 FPKM
- KLK4 Expression level (FPKM) (KDM4A SCNT 8-cell embryos): 1.41 FPKM
- KLK11 Expression level (FPKM) (KDM4A SCNT 8-cell embryos): 7.07 FPKM
- KPTN Expression level (FPKM) (KDM4A SCNT 8-cell embryos): 6.84 FPKM
- LARP6 Expression level (FPKM) (KDM4A SCNT 8-cell embryos): 0.41 FPKM
- LEMD3 Expression level (FPKM) (KDM4A SCNT 8-cell embryos): 0.59 FPKM
- LIM2 Expression level (FPKM) (KDM4A SCNT 8-cell embryos): 2.01 FPKM
- LINC00263 Expression level (FPKM) (KDM4A SCNT 8-cell embryos): 3.81 FPKM
- LOC284408 Expression level (FPKM) (KDM4A SCNT 8-cell embryos): 1.36 FPKM
- LOC347411 Expression level (FPKM) (KDM4A SCNT 8-cell embryos): 1.62 FPKM
- LOC401397 Expression level (FPKM) (KDM4A SCNT 8-cell embryos): 11.19 FPKM
- LOC643955 Expression level (FPKM) (KDM4A SCNT 8-cell embryos): 3.18 FPKM
- LOC653513 Expression level (FPKM) (KDM4A SCNT 8-cell embryos): 1.03 FPKM
- LOC723809 Expression level (FPKM) (KDM4A SCNT 8-cell embryos): 3.84 FPKM
- LOC100129515 Expression level (FPKM) (KDM4A SCNT 8-cell embryos): 9.35 FPKM
- LOC100289211 Expression level (FPKM) (KDM4A SCNT 8-cell embryos): 8.18 FPKM
- LOC100505854 Expression level (FPKM) (KDM4A SCNT 8-cell embryos): 4.77 FPKM
- LOC100506305 Expression level (FPKM) (KDM4A SCNT 8-cell embryos): 0.91 FPKM
- LOC100506668 Expression level (FPKM) (KDM4A SCNT 8-cell embryos): 8.79 FPKM
- LUC7L Expression level (FPKM) (KDM4A SCNT 8-cell embryos): 2.91 FPKM
- M1 Expression level (FPKM) (KDM4A SCNT 8-cell embryos): 2.52 FPKM
- MAGEA12 Expression level (FPKM) (KDM4A SCNT 8-cell embryos): 0.25 FPKM
- MAGEB2 Expression level (FPKM) (KDM4A SCNT 8-cell embryos): 0.79 FPKM
- MATR3 Expression level (FPKM) (KDM4A SCNT 8-cell embryos): 9.43 FPKM
- MED31 Expression level (FPKM) (KDM4A SCNT 8-cell embryos): 27.22 FPKM
- MFSD11 Expression level (FPKM) (KDM4A SCNT 8-cell embryos): 7.94 FPKM
- MPV17L2 Expression level (FPKM) (KDM4A SCNT 8-cell embryos): 4.48 FPKM
- MRPL28 Expression level (FPKM) (KDM4A SCNT 8-cell embryos): 1.56 FPKM
- MTERF Expression level (FPKM) (KDM4A SCNT 8-cell embryos): 3.15 FPKM
- NANOGNB Expression level (FPKM) (KDM4A SCNT 8-cell embryos): 30.92 FPKM
- NDUFAF2 Expression level (FPKM) (KDM4A SCNT 8-cell embryos): 6.37 FPKM
- NMNAT1 Expression level (FPKM) (KDM4A SCNT 8-cell embryos): 3.71 FPKM
